Data: US9302999B2, “Substituted triazoles as herbicides” (E. I. DU PONT DE NEMOURS AND COMPANY, priority 2012, dated 2016)

Key:
Format in all cases: in vivo
[1] = tested on: Russian thistle (Salsola iberica); assay: Test D pre-/postemergence: Russian thistle
Description: (§1) Seeds of plant species selected from bluegrass (annual bluegrass, Poa annua), blackgrass (Alopecurus myosuroides), canarygrass (Phalaris minor), chickweed (common chickweed, Stellaria media), galium (catchweed bedstraw, Galium aparine), bromegrass, downy (downy bromegrass, Bromus tectorum), field poppy (Papaver rhoeas), field violet (Viola arvensis), foxtail, green (green foxtail, Setaria viridis), deadnettle (henbit deadnettle, Lamium amplexicaule), ryegrass, Italian (Italian ryegrass, Lolium multiflorum), kochia (Kochia scoparia), lambsquarters (Chenopodium album), oilseed rape (Brassica napus), pigweed (Amaranthus retroflexus), Russian thistle (Salsola iberica), chamomile (scentless chamomile, Matricaria inodora), speedwell (bird's-eye speedwell, Veronica persica), barley, spring (spring barley, Hordeum vulgare), wheat, spring (spring wheat, Triticum aestivum), buckwheat, wild (wild buckwheat, Polygonum convolvulus), mustard, wild (wild mustard, Sinapis arvensis), oat, wild (wild oat, Avena fatua), radish, wild (wild radish, Raphanus raphanistrum), windgrass (Apera spica-venti), barley, winter (winter barley, Hordeum vulgare), and wheat, winter (winter wheat, Triticum aestivum) were planted into a silt loam soil and treated preemergence with test chemicals formulated in a non-phytotoxic solvent mixture which included a surfactant. At the same time, these same crop and weed species were planted in pots containing the planting medium comprising spaghnum peat moss, vermiculite, wetting agent and starter nutrients and treated with postemergence applications of the test chemicals formulated in the same manner. Plants ranged in height from 2 to 18 cm (1- to 4-leaf stage).
(§2) Treated plants and controls were maintained in a controlled growth environment for 14 to 21 days after which time all species were compared to controls and visually evaluated. Plant response ratings, summarized in Table D, are based on a scale of 0 to 100 where 0 is no effect and 100 is complete control. A dash (-) response means no test result.

[2] = tested on: lambsquarters (Chenopodium album); assay: Test D pre-/postemergence: lambsquarters
Description: as §1, §2

[3] = tested on: speedwell (bird's-eye speedwell, Veronica persica); assay: Test D pre-/postemergence: speedwell
Description: as §1, §2

[4] = tested on: barley, spring (spring barley, Hordeum vulgare); assay: Test D pre-/postemergence: barley, spring
Description: as §1, §2

[5] = tested on: barley, winter (winter barley, Hordeum vulgare); assay: Test D pre-/postemergence: barley, winter
Description: as §1, §2

[6] = Postemergence, 31 g ai/ha, scale 0 to 100 (0 no effect, 100 complete control)
[7] = Postemergence, 62 g ai/ha, scale 0 to 100 (0 no effect, 100 complete control)
[8] = Postemergence, 125 g ai/ha, scale 0 to 100, 0 no effect, 100 complete control
[9] = Postemergence, 250 g ai/ha, scale 0 to 100 (0 no effect, 100 complete control)
[10] = Preemergence, 31 g ai/ha, scale 0 to 100, 0 no effect, 100 complete control
[11] = Preemergence, 62 g ai/ha, scale 0 to 100
[12] = Preemergence, 125 g ai/ha, scale 0 to 100
[13] = Preemergence, 250 g ai/ha, scale 0 to 100
[14] = Postemergence, 16 g ai/ha, scale 0 to 100

## FC(F)(F)COc1nn(-c2ccc(C(F)(F)F)cc2)nc1Cc1ccnc(C(F)(F)F)c1 [Compound 14, 4-[[5-(2,2,2-trifluoroethoxy)-2-[4-(trifluoromethyl)phenyl]-2H-1,2,3-triazol-4-yl]methyl]-2-(trifluoromethyl)pyridine]
[1]; [6]
  Plant response rating: Russian Thistle: 0
[1]; [7]
  Plant response rating: Russian Thistle: 75
[1]; [8]
  Plant response rating: Russian Thistle: 100
[1]; [9]
  Plant response rating: Russian Thistle: 100
[1]; [10]
  Plant response rating, Russian Thistle: 0
[1]; [11]
  Plant response rating, Russian Thistle: 0
[1]; [12]
  Plant response rating, Russian Thistle: 10
[1]; [13]
  Plant response rating, Russian Thistle: 40
[2]; [6]
  Plant response rating: Lambsquarters: 80
[2]; [7]
  Plant response rating: Lambsquarters: 80
[2]; [8]
  Plant response rating: Lambsquarters: 100
[2]; [9]
  Plant response rating: Lambsquarters: 100
[2]; [10]
  Plant response rating, Lambsquarters: 0
[2]; [11]
  Plant response rating, Lambsquarters: 40
[2]; [12]
  Plant response rating, Lambsquarters: 60
[2]; [13]
  Plant response rating, Lambsquarters: 75
[3]; [6]
  Plant response rating: Speedwell: 100
[3]; [7]
  Plant response rating: Speedwell: 100
[3]; [8]
  Plant response rating: Speedwell: 100
[3]; [9]
  Plant response rating: Speedwell: 100
[3]; [10]
  Plant response rating, Speedwell: 100
[3]; [11]
  Plant response rating, Speedwell: 100
[3]; [12]
  Plant response rating, Speedwell: 100
[3]; [13]
  Plant response rating, Speedwell: 100
[4]; [6]
  Plant response rating: Barley, Spring: 25
[4]; [7]
  Plant response rating: Barley, Spring: 25
[4]; [8]
  Plant response rating: Barley, Spring: 30
[4]; [9]
  Plant response rating: Barley, Spring: 40
[4]; [10]
  Plant response rating, Barley, Spring: 0
[4]; [11]
  Plant response rating, Barley, Spring: 10
[4]; [12]
  Plant response rating, Barley, Spring: 15
[4]; [13]
  Plant response rating, Barley, Spring: 20
[5]; [6]
  Plant response rating: Barley, Winter: 10
[5]; [7]
  Plant response rating: Barley, Winter: 25
[5]; [8]
  Plant response rating: Barley, Winter: 35
[5]; [9]
  Plant response rating: Barley, Winter: 40
[5]; [10]
  Plant response rating, Barley, Winter: 0
[5]; [11]
  Plant response rating, Barley, Winter: 0
[5]; [12]
  Plant response rating, Barley, Winter: 10
[5]; [13]
  Plant response rating, Barley, Winter: 35

## COc1nn(-c2ccc(C(F)(F)F)cc2)nc1Cc1ccnc(C(F)(F)F)c1 [Compound 15, 4-[[5-methoxy-2-[4-(trifluoromethyl)phenyl]-2H-1,2,3-triazol-4-yl]methyl]-2-(trifluoromethyl)pyridine]
[1]; [6]
  Plant response rating: Russian Thistle: 100
[1]; [7]
  Plant response rating: Russian Thistle: 100
[1]; [8]
  Plant response rating: Russian Thistle: 100
[1]; [9]
  Plant response rating: Russian Thistle: 100
[1]; [14]
  Plant response rating, Russian Thistle: 60
[1]; [10]
  Plant response rating, Russian Thistle: 0
[1]; [11]
  Plant response rating, Russian Thistle: 0
[1]; [12]
  Plant response rating, Russian Thistle: 80
[1]; [13]
  Plant response rating, Russian Thistle: 80
[2]; [6]
  Plant response rating: Lambsquarters: 100
[2]; [7]
  Plant response rating: Lambsquarters: 100
[2]; [8]
  Plant response rating: Lambsquarters: 100
[2]; [9]
  Plant response rating: Lambsquarters: 100
[2]; [14]
  Plant response rating, Lambsquarters: 50
[2]; [10]
  Plant response rating, Lambsquarters: 0
[2]; [11]
  Plant response rating, Lambsquarters: 90
[2]; [12]
  Plant response rating, Lambsquarters: 100
[2]; [13]
  Plant response rating, Lambsquarters: 100
[3]; [6]
  Plant response rating: Speedwell: 100
[3]; [7]
  Plant response rating: Speedwell: 100
[3]; [8]
  Plant response rating: Speedwell: 100
[3]; [9]
  Plant response rating: Speedwell: 100
[3]; [14]
  Plant response rating, Speedwell: 100
[4]; [6]
  Plant response rating: Barley, Spring: 15
[4]; [7]
  Plant response rating: Barley, Spring: 25
[4]; [8]
  Plant response rating: Barley, Spring: 30
[4]; [9]
  Plant response rating: Barley, Spring: 40
[4]; [14]
  Plant response rating, Barley, Spring: 10
[4]; [10]
  Plant response rating, Barley, Spring: 0
[4]; [11]
  Plant response rating, Barley, Spring: 0
[4]; [12]
  Plant response rating, Barley, Spring: 10
[4]; [13]
  Plant response rating, Barley, Spring: 15
[5]; [6]
  Plant response rating: Barley, Winter: 10
[5]; [7]
  Plant response rating: Barley, Winter: 15
[5]; [8]
  Plant response rating: Barley, Winter: 20
[5]; [9]
  Plant response rating: Barley, Winter: 40
[5]; [14]
  Plant response rating, Barley, Winter: 10
[5]; [10]
  Plant response rating, Barley, Winter: 0
[5]; [11]
  Plant response rating, Barley, Winter: 5
[5]; [12]
  Plant response rating, Barley, Winter: 20
[5]; [13]
  Plant response rating, Barley, Winter: 30
